For data set [1], the system named is matrix metalloproteinase 2 (MMP-2). Also noted: method as in PMID 19638505. The settings on record: prospective human trial; cited from earlier work.
Data set [2] concerns 1542CPTX. Briefly: Three-day MTT cell growth inhibition assay, 1542CPTX. The format is cell-based, human. The settings on record: Homo sapiens, 72 h, 3 days.
Test in data set [3]: as above
The settings on record: human, 1542CPTX cells. The class given is cell-based, human.

The subject of data set [4] is 1542NPTX. Put plainly: Three-day MTT cell growth inhibition assay, 1542NPTX. The class given is cell-based, human. The settings on record: Homo sapiens, 72 h, 3 days.
Test in data set [5]: as above
The format is cell-based, human. The following applies: human, 1542NPTX cells.

Data set [6] deals with 1532CPTX. Briefly: Three-day MTT cell growth inhibition assay, 1532CPTX. The format is cell-based, human. The following applies: Homo sapiens, 72 h, 3 days.
Test in data set [7]: as above
The class given is cell-based, human. The settings on record: human, 1532CPTX cells.

For data set [8], the system named is PC3. Put plainly: Three-day MTT cell growth inhibition assay, PC3. The format is cell-based, human. The following applies: Homo sapiens, PC-3, 72 h, 3 days.
Data set [9] is described as follows: Three-day MTT cell growth inhibition assay, PC3. The format is cell-based, human. The following applies: human, PC3 cells.
For data set [10], the system named is PC3M. Briefly: Three-day MTT cell growth inhibition assay, PC3M. The following applies: Homo sapiens, PC-3M, 72 h, PC3M. The format is cell-based, human. The source says:
(§1) Assays were in replicates of N = 3, and were repeated. […]
(§2) Values are the mean±SEM of a single experiment, in
(§3) replicates of N=4, repeated at least once (also N=4).
(§4) Supplementary Figure 1b. Synthetic round #2.

A short description of data set [11]: Three-day MTT cell growth inhibition assay, PC3M. The settings on record: human; PC3M; 3 days. The format is cell-based, human.
Source text: as §1, §2, §3, §4

Data set [12] concerns protein phosphorylation in PC3-M and PC3 cells. Put plainly: KinomeView phospho-motif antibody screen. The format is cell-based, human. The following applies: 10 µM, 3 days, ± TGFβ. The protocol:
The Kinoview™ and PhosphoScan™ assays were performed by Cell Signaling Technology Inc.
Supplementary Figure 10. Proteomic analysis of the effects of KBU2046 on the kinome. (a-c) Screening for effects on the kinome. PC3-M cells were pre-treated with 10 µM KBU2046, genistein or vehicle control for 3 days, then with ± TGFβ, as indicated. Resultant cell lysate, as well as lysate from tumors from mice treated with 150 mg/kg KBU2046 or control mice (from manuscript Figure 2a), were then probed with the KinomeView® panel of antibodies by Western blot. In instances where KBU2046 was inhibiting protein phosphorylation in cells and in tumors, a repeat experiment of PC3-M cells was conducted (Experiment #2). In addition to including PC3-M cells, as in Experiment #1, Experiment #2 expanded to examine effects on PC3 cells. (a) The identification of an 83 kDa band of interest (red arrows). This constitutes the only change […]
as in tumor tissue. […] (c) All […]
other Western blots of phospho-motif antibodies that were evaluated on initial screen. NI = tumor not informative; this denotes a tumor sample that yielded an abnormal coomassie blue staining pattern. Data from this sample was therefore not considered further.
(also on this page, place not known: cat #C32G12; tPE cat #2981; sRXY, FXs NI NI cat #2351; tXR cat #23C8D12; RXRXX(s/t) NI NI)
(1 picture or pasted object on this page, not shown here)

Data set [13] concerns human prostate cells (PC3, PC3-M, 1532NPTX, 1542NPTX, 1532CPTX, 1542CPTX). Also noted: method as in PMID 15833883. The following applies: human PCa cells, nanomolar concentrations; cited from earlier work.
For data set [14], the target named is MKK4 (Homo sapiens, UniProt P45985). Also noted: method as in PMID 19638505. The following applies: low nanomolar concentrations; cited from earlier work.
Chain of MKK4 (P45985 whole entry): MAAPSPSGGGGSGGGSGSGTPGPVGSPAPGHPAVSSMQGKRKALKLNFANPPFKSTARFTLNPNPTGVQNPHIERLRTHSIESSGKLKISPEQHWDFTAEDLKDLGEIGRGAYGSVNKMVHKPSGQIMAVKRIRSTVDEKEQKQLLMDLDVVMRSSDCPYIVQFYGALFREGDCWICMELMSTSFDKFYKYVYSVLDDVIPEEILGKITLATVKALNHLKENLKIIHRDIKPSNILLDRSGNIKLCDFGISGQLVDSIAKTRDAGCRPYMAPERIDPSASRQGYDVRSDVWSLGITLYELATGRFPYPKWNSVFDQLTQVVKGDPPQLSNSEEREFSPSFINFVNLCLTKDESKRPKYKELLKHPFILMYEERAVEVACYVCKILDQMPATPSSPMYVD
The subject of data set [15] is human PCa PC3-M cell orthotopic implants. Also on record: method as in PMID 18339885. The settings on record: murine orthotopic model; cited from earlier work.
Data set [16] deals with 1532NPTX. Put plainly: Three-day MTT cell growth inhibition assay, 1532NPTX. The class given is cell-based, human. The settings on record: Homo sapiens, 72 h, 3 days.
Test in data set [17]: as above
The format is cell-based, human. The following applies: human, 1532NPTX cells.

Data set [18] relates to PC3-M cells. Briefly: Boyden chamber cell invasion assay, PC3-M cells. The settings on record: PC3-M cells, 10 µM compound, 3 days. The format is cell-based, human. The protocol: Boyden chamber cell invasion assays were performed as previously described by us[30], using either denatured collagen (BD Biosciences) or type IV human collagen (BD Biosciences), with all experiments repeated, each in N = 4 replicates. In some experiments, as indicated, cells were transfected with an expression plasmid, using Lipofectamine 2000™ (Invitrogen), or with siRNA, using DharmaFect Duo (Thermo Scientific) and co-transfected with β-Galactosidase (Plasmid pCMV•SPORT-βgal; Life Technology). […]
For cell invasion, PC3-M cells […]
were treated with 10 µM compound for a total of 3 days, and cell invasion assays were run at the end of the 3 day period, in the presence of compound. Values are the mean±SEM of three separate experiments, each run in replicates of N=3. […]
assays were performed with PC3-M cells. Values are the mean±SEM of a single experiment, in replicates of N=4, repeated at least once (also N=4). […]

The subject of data set [19] is over 9000 human proteins. Put plainly: ProtoArray Human Protein Microarray binding assay. The settings on record: levels >/= 10 fold above background. The protocol:
The ProtoArray® assay, using the Human Protein Microarray platform, was performed by Invitrogen. […]
followed by detection with FITC-streptavidin, and visualization by fluorescent microscopy (with equal exposure times). (d) Protein array hybridization. KBU2046-biotin was hybridized to ProtoArray® Human Protein Microarray’s at 0.5 and 10 µM with and without 10 fold excess free KBU2046. We first sought proteins that met the following criteria, and did so at both 0.5 and 10 µM concentrations of KBU2046-biotin (in the absence of free KBU2046): Z-Score greater than 2.5, Z-Factor greater than 0.5, CI P-value less than 0.05, negative control value <2,000 (relative fluorescence units; RFUs), and a signal/negative control signal of >10 and >5 for 10 µM and 0.5 µM conditions, respectively. This yielded 3 proteins, shown in table, for an initial hit rate of 0.03%. We then required free KBU2046 to inhibit binding by >75%. Of the two remaining candidates, we eliminated isovaleryl-CoA dehydrogenase (ICD). Its binding signal doubled on […]
suspected non-specific binding by the biotin-linker moiety. We deemed cysteine and glycine-rich protein 1 (CSRP1) our top priority protein, though its binding characteristics at 10 µM + free KBU2046 were similar to ICD, albeit not as extreme. We thus evaluated whether KBU2046- […]
There were two additional notable findings from protein array studies. […]

Broadly, the IC20 is the point of the concentration-response curve where the effect stands at 20%. Low values mean an effect from little substance, high ones a need for much substance. As a reminder, the IC50 is the midpoint of a concentration-inhibition curve. What is called viability is the share of living cells, or the viability signal relative to a control. Read a high viability as better survival.

As to `O=c1c(-c2ccc(O)cc2)coc2cc(O)cc(O)c12` [Genistein, 4′,5,7-trihydroxyisoflavone, reference compound], the “MMP-2 expression in prostate tissue” value in data set [1] was “downregulates”. The IC20 in [2] came out at 24.7 µM; in data set [4], 18.7 µM; in data set [6], 30.8 µM; in data set [8] it was 18 µM; in [10] (concentration inhibiting cell growth by 20% after 3 days), 17.5 µM; in data set [16], 23 µM. In addition, the IC50 in data set [2] is above 50 µM; in data set [4], above 50 µM; in [6], above 50 µM; in [8], 41.7 µM; in [10] (concentration inhibiting cell growth by 50% after 3 days), 45.3 µM; in data set [16], above 50 µM. Also, the viability at 3 days, 50 µM worked out at 77.4% in data set [3]; 80.5% in data set [5]; 71.7% in data set [7]; 39.3% in data set [9]; 46.2% in data set [11]; 66.9% in [17]. Further, the “changes in protein phosphorylation” value in data set [12] is “widespread changes in protein phosphorylation”. For the same compound, the cell invasion result in [13] was “inhibit human prostate cancer (PCa) cell invasion”. Moreover, in data set [14], the “inhibition of MKK4 kinase activity” value is “inhibited the kinase activity”. Further, the metastasis entry in [15] was “inhibit”.

Turning to `O=c1c(-c2ccc(O)cc2)coc2cccc(O)c12` [compound 8], in [18], the anti-invasion activity entry is recorded as “does not affect activity”.

As to `COc1ccc(-c2coc3cc(OC)cc(O)c3c2=O)cc1` [compound 16], in data set [18], the anti-invasion activity entry is given as “retains anti-invasion activity”.

For `CN[C@@H]1C[C@H]2O[C@@](C)([C@@H]1OC)n1c3ccccc3c3c4c(c5c6ccccc6n2c5c31)C(=O)NC4` [staurosporine], the “number of proteins bound” value in data set [19] was found to be 214.

Values taken from PMC6014988, “Precision therapeutic targeting of human cancer cell motility” (Nature Communications, 2018).
